Columns and labels:
[1] = test system: acetophenone-responsive OSN subtypes; test: Transient naris occlusion followed by Act-Seq; assay type: in vivo, mouse; settings: 10% acetophenone, 2 hours after unplugging
Experimental: Because odor responses in occluded OSNs cannot be examined in the chronic occlusion experiment due to permanent cautery, transient unilateral naris occlusion was performed using removable nasal plugs. Adult mice (6-12 weeks old) were anesthetized by isoflurane and removal nasal plugs were inserted into one of the two nostrils, as previously described (Galliano et al., 2021; Kass et al., 2012). The occlusion was confirmed by measuring airflow from the occluded nostril via thermocouple. After 5 days, a subset of mice was used for scSeq experiment directly (control mice) to assess the effects of naris occlusion on changes in gene expression. Under brief anesthesia by isoflurane, the remaining mice were unplugged and transferred to a new empty disposable cage containing either DPG alone or 10% acetophenone. After 2 hours, mice were subjected to scSeq. Each of the two nostrils was used separately in both control (open and plugged) and odor-exposed mice (open and unplugged).

[2] = test system: acetophenone-responsive OSN subtypes; test: Environment switch followed by Act-Seq; assay type: in vivo, mouse; settings: 2 weeks after switch from home cage to new odor environment
Experimental: To examine environment-dependent changes in gene expression and their effects on odor-evoked responses. Act-Seq was performed 2 weeks after environment switches. Adult mice (6-12 weeks old) were group-housed in the regular home-cage environment for at least one week before the transfer to their novel environments. Individual mice were transferred to a new disposable cage containing materials for a novel environment in the satellite animal facility. Two different novel environments were used, with each containing non-overlapping contents; Environment A (paper bedding, hay, dried flowers (such as marigold), peanuts, seeds (e.g., sunflower seeds, pumpkin seeds), puffed rice), and Environment B (garden soil, aspen shavings, coconut husks, dried fruits (e.g., berries, mango, pineapple), dried vegetables (e.g., green peas, corn, bell peppers), millet, fresh fruits (banana, apple, peach), corn flakes). Mice were singly-housed throughout the entire 2 weeks and were transferred to newly prepared environmental cages every 12 hours to minimize the contributions of any murine odors, which are likely the predominant odorants present within standard home-cage housing environments. After 2 weeks, individual mice were transferred to new empty disposable cages, and Act-Seq using acetophenone was performed as above.

Olfr923 [3] = test: Act-Seq activation score in OSNs expressing Olfr923; assay type: in vivo, mouse; settings: acetophenone vs 2-HA
Experimental: Act-Seq (Wu et al., 2017) was performed following odor exposure to quantify odor-evoked responses in each OSN subtype (defined by their expressed OR) across the entire OR repertoire. Mice were habituated to a reversed light cycle for at least for 1 week before odor exposure, transferred to a new disposable cage with regular bedding/food and kept overnight in a satellite animal facility. On the experimental day, each mouse was first transferred to a new empty disposable cage during the dark cycle and habituated for 20 minutes. Empty cages were used to avoid any activation by odorants present within the environments in which the mice were housed. Odors were added to a piece of filter paper (100 μL of odorant) in a 35 mm petri dish and a cotton ball (200 μL of odorant) and placed in each cage. […]
The remaining 169 activation genes that were also considered as HVGs often had weak loadings across multiple GEPs. […] To summarize the effects of odor activation across this set of activation genes, the TPT-expression of these activation genes were z-scored (using means and standard deviations for these genes in the control, acetophenone, and octanal datasets, identified by subsampling equal numbers of cells across all ORs expressed in at least 6 cells across 100 restarts). […] PCA was performed on the differences in z-scored activation gene expression between control and odor conditions. […]

Olfr923 [4] = settings: Hu et al. 2020; Jiang et al. 2015; cited from earlier work

activation scores of acetophenone receptor-expressing OSNs from occluded (unplugged) vs open nostrils [1]: higher activation scores
Compound: CC(=O)c1ccccc1 [acetophenone]
acetophenone-driven OSN activation scores across odor environments [2]: altered acetophenone-driven OSN activation scores in an environment-dependent manner | activation scores for OSNs expressing Olfr923 (Olfr923 [3]): higher for acetophenone than 2-HA | affinity for Olfr923 (Olfr923 [4]): high affinity

Reference: patent US20250043349A1, “DEORPHANIZING ODORS USING SINGLE CELL SEQUENCING” (PRESIDENT AND FELLOWS OF HARVARD COLLEGE, priority 2021, published 2025)
